Mutagenic call data for five compounds are collected here from PubChem BioAssay AID1259407 (Chemical Carcinogenesis Research Information System (CCRIS), 2018).

Calls of active or inactive are those of the source. How the calls were made is not given here.

For the series, the system named is CCRIS mutagenicity, Ames/micronucleus/aberration tests. Put plainly: CCRIS mutagenicity studies.
The mark [1] stands for this setting: Test System: AMES SALMONELLA TYPHIMURIUM, Strain/Indicator: TA98, Metabolic Activation: NONE, Method: PREINCUBATION
Setting [2] is: Test System: AMES SALMONELLA TYPHIMURIUM, Strain/Indicator: TA100, Metabolic Activation: NONE, Method: PREINCUBATION
Setting [3] is: Test System: AMES SALMONELLA TYPHIMURIUM, Strain/Indicator: TA98, Metabolic Activation: NONE, Method: STANDARD PLATE.
Where [4] appears, read: Test System: AMES SALMONELLA TYPHIMURIUM, Strain/Indicator: TA100, Metabolic Activation: NONE, Method: STANDARD PLATE.

With `NN=C(N)N`, the mutagenic call is, setting by setting: under setting [1], “inactive; negative”; (Test System: AMES SALMONELLA TYPHIMURIUM, Strain/Indicator: TA98, Metabolic Activation: RAT LIVER S-9, PHENOBARBITAL AND BETA-NAPHTHOFLAVONE, Method: PREINCUBATION) “inactive; negative”; under setting [2], “inactive; negative”; (Test System: AMES SALMONELLA TYPHIMURIUM, Strain/Indicator: TA100, Metabolic Activation: RAT LIVER S-9, PHENOBARBITAL AND BETA-NAPHTHOFLAVONE, Method: PREINCUBATION) “inactive; negative”; (Test System: AMES SALMONELLA TYPHIMURIUM, Strain/Indicator: TA1535, Metabolic Activation: NONE, Method: PREINCUBATION) “inactive; negative”; (Test System: AMES SALMONELLA TYPHIMURIUM, Strain/Indicator: TA1535, Metabolic Activation: RAT LIVER S-9, PHENOBARBITAL AND BETA-NAPHTHOFLAVONE, Method: PREINCUBATION) “inactive; negative”. The mutagenic call was “inactive; negative” (Test System: AMES SALMONELLA TYPHIMURIUM, Strain/Indicator: TA1537, Metabolic Activation: NONE, Method: PREINCUBATION); “inactive; negative” (Test System: AMES SALMONELLA TYPHIMURIUM, Strain/Indicator: TA1537, Metabolic Activation: RAT LIVER S-9, PHENOBARBITAL AND BETA-NAPHTHOFLAVONE, Method: PREINCUBATION); “inactive; negative” (Test System: E.COLI, Strain/Indicator: WP2UVRA/PKM101, Metabolic Activation: NONE, Method: PREINCUBATION); “inactive; negative” (Test System: E.COLI, Strain/Indicator: WP2UVRA/PKM101, Metabolic Activation: RAT LIVER S-9, PHENOBARBITAL AND BETA-NAPHTHOFLAVONE, Method: PREINCUBATION).

As for `CC[C@]1(O)CC2CN(CCc3c([nH]c4ccccc34)[C@@](C(=O)OC)(c3cc4c(cc3OC)N(C=O)[C@H]3[C@@](O)(C(=O)OC)[C@H](OC(C)=O)[C@]5(CC)C=CCN6CC[C@]43[C@@H]65)C2)C1` (stereo not given in full), the mutagenic call by setting is: (End Point: In vitro micronucleus, Test System: Human lymphoblastoid TK6 cells, Metabolic Activation: None) “active; positive (p<0.001)”; (End Point: In vivo micronucleus, Test System: Peripheral blood lymphocytes, Species: Human, Strain/Sex: Workers (6 males and 9 females) and matched controls, Route: Occupational) “active; positive, both mean micronuclei rate and mean micronucleated cells rate signific”; under setting [1], “inactive; negative”; under setting [3], “inactive; negative”; (Test System: AMES SALMONELLA TYPHIMURIUM, Strain/Indicator: TA98, Metabolic Activation: S-9, Method: PREINCUBATION) “inactive; negative”; (Test System: AMES SALMONELLA TYPHIMURIUM, Strain/Indicator: TA98, Metabolic Activation: S-9, Method: STANDARD PLATE) “inactive; negative”. Besides, the mutagenic call runs as follows: under setting [2], “inactive; negative”; under setting [4], “inactive; negative”; (Test System: AMES SALMONELLA TYPHIMURIUM, Strain/Indicator: TA100, Metabolic Activation: S-9, Method: PREINCUBATION) “inactive; negative”; (Test System: AMES SALMONELLA TYPHIMURIUM, Strain/Indicator: TA100, Metabolic Activation: S-9, Method: STANDARD PLATE) “inactive; negative”; (Test System: AMES SALMONELLA TYPHIMURIUM, Strain/Indicator: TA1537, Metabolic Activation: S-9, Method: STANDARD PLATE) “inactive; negative”; (Test System: CHINESE HAMSTER V-79, Strain/Indicator: V-79 (HGPRT)/6-THIOGUANINE, Metabolic Activation: NONE) “inactive; negative”. In addition, the mutagenic call (Test System: CHINESE HAMSTER V-79, Strain/Indicator: V-79/6-THIOGUANINE, Metabolic Activation: NONE, Method: SUSPENSION/PLATE) is “inactive; negative”; the mutagenic call (Test System: CHINESE HAMSTER V-79, Strain/Indicator: V-79/6-THIOGUANINE, Metabolic Activation: RAT, LIVER, HEPATOCYTES, Method: SUSPENSION/PLATE) is “inactive; negative”; the mutagenic call (Test System: E. COLI, Strain/Indicator: WP2 (HCR), Metabolic Activation: NONE, Method: STANDARD PLATE) was “inactive; negative”; the mutagenic call (Test System: E. COLI, Strain/Indicator: WP2 (HCR), Metabolic Activation: S-9, Method: STANDARD PLATE) is “inactive; negative”; the mutagenic call (Test System: MOUSE LYMPHOMA, Strain/Indicator: L5178Y (TK+/TK-), Metabolic Activation: NONE) is “active; positive”.

`CCOCOCC`: the mutagenic call by setting is: (Test System: AMES SALMONELLA TYPHIMURIUM, Strain/Indicator: TA98, Metabolic Activation: HAMSTER, LIVER, S-9, AROCLOR 1254, Method: STANDARD PLATE) “inactive; negative”; under setting [3], “inactive; negative”; (Test System: AMES SALMONELLA TYPHIMURIUM, Strain/Indicator: TA98, Metabolic Activation: RAT, LIVER, S-9, AROCLOR 1254, Method: STANDARD PLATE) “inactive; negative”; (Test System: AMES SALMONELLA TYPHIMURIUM, Strain/Indicator: TA100, Metabolic Activation: HAMSTER, LIVER, S-9, AROCLOR 1254, Method: STANDARD PLATE) “inactive; negative”; under setting [4], “inactive; negative”; (Test System: AMES SALMONELLA TYPHIMURIUM, Strain/Indicator: TA100, Metabolic Activation: RAT, LIVER, S-9, AROCLOR 1254, Method: STANDARD PLATE) “inactive; negative”. Moreover, the mutagenic call was “inactive; negative” (Test System: AMES SALMONELLA TYPHIMURIUM, Strain/Indicator: TA1535, Metabolic Activation: HAMSTER, LIVER, S-9, AROCLOR 1254, Method: STANDARD PLATE); “inactive; negative” (Test System: AMES SALMONELLA TYPHIMURIUM, Strain/Indicator: TA1535, Metabolic Activation: NONE, Method: STANDARD PLATE); “inactive; negative” (Test System: AMES SALMONELLA TYPHIMURIUM, Strain/Indicator: TA1535, Metabolic Activation: RAT, LIVER, S-9, AROCLOR 1254, Method: STANDARD PLATE); “inactive; negative” (Test System: AMES SALMONELLA TYPHIMURIUM, Strain/Indicator: TA1537, Metabolic Activation: HAMSTER, LIVER, S-9, AROCLOR 1254, Method: STANDARD PLATE); “inactive; negative” (Test System: AMES SALMONELLA TYPHIMURIUM, Strain/Indicator: TA1537, Metabolic Activation: NONE, Method: STANDARD PLATE); “inactive; negative” (Test System: AMES SALMONELLA TYPHIMURIUM, Strain/Indicator: TA1537, Metabolic Activation: RAT, LIVER, S-9, AROCLOR 1254, Method: STANDARD PLATE). Further, the mutagenic call reads like this: (Test System: AMES SALMONELLA TYPHIMURIUM, Strain/Indicator: TA1538, Metabolic Activation: HAMSTER, LIVER, S-9, AROCLOR 1254, Method: STANDARD PLATE) “inactive; negative”; (Test System: AMES SALMONELLA TYPHIMURIUM, Strain/Indicator: TA1538, Metabolic Activation: NONE, Method: STANDARD PLATE) “inactive; negative”; (Test System: AMES SALMONELLA TYPHIMURIUM, Strain/Indicator: TA1538, Metabolic Activation: RAT, LIVER, S-9, AROCLOR 1254, Method: STANDARD PLATE) “inactive; negative”; (Test System: MOUSE LYMPHOMA, Strain/Indicator: L5178Y (TK+/TK-), Metabolic Activation: NONE, Method: SUSPENSION/PLATE) “inactive; negative. reevaluation of results: negative”; (Test System: MOUSE LYMPHOMA, Strain/Indicator: L5178Y (TK+/TK-), Metabolic Activation: RAT, LIVER, S-9, AROCLOR 1254, Method: SUSPENSION/PLATE) “active; positive. reevaluation of results: positive”.

As for `CN(C)N=Nc1ccccc1`, the mutagenic call (Test System: AMES SALMONELLA TYPHIMURIUM, Strain/Indicator: G46, Metabolic Activation: NONE, Method: STANDARD PLATE) was “active; positive” and the mutagenic call (Test System: AMES SALMONELLA TYPHIMURIUM, Strain/Indicator: G46, Metabolic Activation: RAT, LIVER, S-9, PHENOBARBITAL, Method: STANDARD PLATE) was “active; positive”.

Consider `COP(=O)(OC)Oc1ccc([N+](=O)[O-])c(C)c1`, for which the mutagenic call is, setting by setting: under setting [3], “inactive; negative”; (Test System: AMES SALMONELLA TYPHIMURIUM, Strain/Indicator: TA98, Metabolic Activation: RAT, LIVER, S-9, Method: STANDARD PLATE) “active; positive”; under setting [4], “inactive; negative”; (Test System: AMES SALMONELLA TYPHIMURIUM, Strain/Indicator: TA100, Metabolic Activation: RAT, LIVER, S-9, Method: STANDARD PLATE) “inactive; negative”.
